Data taken from US11505617B2, “Benzodiazepine derivatives” (IMMUNOGEN, INC., priority 2009, dated 2022).
Read-outs that look alike come from different tables or passages of the source.

B1: huN901-IGN03 (conjugate, chains of the INN, looked up)
VH: QVQLVESGGGVVQPGRSLRLSCAASGFTFSSFGMHWVRQAPGKGLEWVAYISSGSFTIYYADSVKGRFTISRDNSKNTLYLQMNSLRAEDTAVYYCARMRKGYAMDYWGQGTLVTVSS
VL: DVVMTQSPLSLPVTLGQPASISCRSSQIIIHSDGNTYLEWFQQRPGQSPRRLIYKVSNRFSGVPDRFSGSGSGTDFTLKISRVEAEDVGVYYCFQGSHVPHTFGQGTKVEIK
modifications: IGN03 indolinobenzodiazepine payload

Tests used:
[1] = tested on: Ramos cells; test: In vitro cytotoxicity, Ramos cells; format: cell-based; conditions: Homo sapiens, read-out: IC50, in vitro antiproliferative activity
Source text: (§1) The in vitro cytotoxicity of the cytotoxic compounds (e.g., indolinobenzodiazepine or oxazolidinobenzodiazepine), derivatives thereof, dimers thereof or conjugates thereof of the present invention can be evaluated for their ability to suppress proliferation of various cancerous cell lines in vitro (Tables 1, 2 in FIGS. 31, 32.). For example, cell lines such as the human breast carcinoma line SK-Br-3, or the human epidermoid carcinoma cell line KB, can be used for the assessment of cytotoxicity of these new compounds. Cells to be evaluated can be exposed to the compounds for 72 hours and the surviving fractions of cells measured in direct assays by known methods. IC50 values can then be calculated from the results of the assays.
(§2) Conjugates of cell-binding agents with cytotoxic agents of the invention can be evaluated for their ability to suppress proliferation of various unwanted cell lines in vitro. For example, cell lines such as the human colon carcinoma line COLO 205, the rhabdomyosarcoma cell line RH-30, and the multiple myeloma cell line MOLP-8 can be used for the assessment of cytotoxicity of these conjugates. Cells to be evaluated can be exposed to the compounds for 1-5 days and the surviving fractions of cells measured in direct assays by known methods. IC50 values can then be calculated from the results of the assays.
General Procedure Used: Samples of IGN Free Drugs or IGN Conjugates were added to 96-well flat bottomed tissue culture plates and titrated using serial dilutions to cover the desired molar range. Antigen positive (Ag+) or Antigen negative (Ag−) cells were added to the wells in specific cell densities in such a way that there were triplicate samples for each drug concentration for each corresponding cell line. The plates were then incubated at 37° C. in an atmosphere of 5% CO2 for 4-5 days depending on the cell line. COLO 205 (1,000 cells/well), Namalwa (3,000 cells/well)—4 days; RH30(1,000 cells/well), Ramos (10,000 cells/well), KB (1,000 cells/well)—5 days)
(§3) At the end of the incubation period cytotoxic potencies were then assessed using a WST-based cell viability assay and surviving cells were measured by developing with WST (2-7 hours). The absorbance in each well was measured and the surviving fraction of cells at each concentration was plotted to reveal the cytotoxicity and antigen specificity (of the conjugates).

[2] = tested on: single stranded DNA (ssDNA); test: DNA probe assay control with single stranded DNA; format: binding; conditions: control experiments
Method: (§4) Reaction conditions: dsDNA ([…] final concentration) in 100 mM TRIS, 1 mM EDTA, pH 8 was mixed with 3.7 molar equivalents of IGN-01 (compound 18), IGN-02 (compound 19), or IGN-09 (compound 15) dissolved in acetonitrile (final acetonitrile concentration <2% by volume). The reaction was incubated at 15° C. (below TM of the dsDNA) and 10 μl aliquots are injected on reverse phase-HPLC at various time points after mixing
(§5) HPLC conditions: Waters Xbridge C8 2.1×50 mm column, Buffer A: 100 mM hexafluoroisopropanol, 16.3 mM triethylamine, in water, Buffer B: Methanol; 98% A→100% B over 32 min, 0.25 ml/min flow, 60° C. column heat, 260 nm detection. Areas under the curve (AUC) for the probe DNA peak and the resulting IGN/DNA adduct peak are used to determine the % crosslinking at each time point of incubation.
(§6) DNA annealing: single stranded DNA (Invitrogen) was annealed into dsDNA using a Peltier thermal cycler (PTC-200, MJ Research). 1 mM DNA in 100 mM TRIS, 1 mM EDTA pH 8 was heated to 80° C. and then gradually cooled to 4° C. over 90 min in 15 degree steps. The resulting dsDNA was kept at 4° C. until used in the assay.

[3] = tested on: double stranded DNA (dsDNA); test: DNA probe assay for IGN dimer binding and alkylation to double stranded DNA; conditions: for binding and covalent adduct formation with double stranded DNA: dsDNA containing guanine residues on opposite strands
Method: as §4, §5, §6

[4] = tested on: COLO205-MDR; test: In vitro cytotoxicity, multi-drug resistant COLO 205 MDR cells; format: cell-based, human; conditions: free compound; multi-drug resistant line vs COLO205
Source text: as §1
Conjugates of cell-binding agents with cytotoxic agents of the invention can be evaluated for their ability to suppress proliferation of various unwanted cell lines in vitro. […] Cells to be evaluated can be exposed to the compounds for 1-5 days and the surviving fractions of cells measured in direct assays by known methods. IC50 values can then be calculated from the results of the assays. […]
At the end of the incubation period cytotoxic potencies were then assessed using a WST-based cell viability assay and surviving cells were measured by developing with WST (2-7 hours). […]

[5] = tested on: RH30 cells; test: In vitro cytotoxicity of conjugates, RH30 cells; format: cell-based, human
Source text: as §2
General Procedure Used: Samples of IGN Free Drugs or IGN Conjugates were added to 96-well flat bottomed tissue culture plates and titrated using serial dilutions to cover the desired molar range. Antigen positive (Ag+) or Antigen negative (Ag−) cells were added to the wells in specific cell densities in such a way that there were triplicate samples for each drug concentration for each corresponding cell line. […]
as §3

| Molecule | IC50 ([1]; Ramos) [pM] | covalent adduct formation with single stranded DNA [2] | binding and covalent adduct formation with double stranded DNA [3] | also measured |
| --- | --- | --- | --- | --- |
| COC(=O)CCCCOc1cc(COc2cc3c(cc2OC)C(=O)N2c4ccccc4C[C@H]2C=N3)cc(COc2cc3c(cc2OC)C(=O)N2c4ccccc4C[C@H]2C=N3)c1 [IGN03] | < 1 |  |  |  |
| COC(=O)COc1cc(COc2cc3c(cc2OC)C(=O)N2c4ccccc4C[C@H]2C=N3)cc(COc2cc3c(cc2OC)C(=O)N2c4ccccc4C[C@H]2C=N3)c1 [IGN05] | < 1 |  |  |  |
| COc1cc2c(cc1OCc1cccc(COc3cc4c(cc3OC)C(=O)N3c5ccccc5C[C@H]3C=N4)c1)N=C[C@@H]1Cc3ccccc3N1C2=O [IGN-01] |  | did not form covalent adducts | bind and covalently adduct | IC50 ([1]; free compounds with and without linker, Ramos cell line (Table 2)): < 1 pM; rate of DNA binding, dependence on DNA sequence ([3]; DNA with internal GATC motif vs GTAC sequence): binds faster to DNA containing an internal GATC motif; reaction with DNA probe substituted with deoxyInosine in place of guanine ([3]; probe containing no C-2 amino group): no reaction |
| COc1cc2c(cc1OCc1cccc(COc3cc4c(cc3OC)C(=O)N3COC[C@H]3C=N4)c1)N=C[C@@H]1COCN1C2=O [IGN-02] |  | did not form covalent adducts | bind and covalently adduct |  |
| COc1cc2c(cc1OCCCOc1cc3c(cc1OC)C(=O)N1c4ccccc4C[C@H]1C=N3)N=C[C@@H]1Cc3ccccc3N1C2=O [IGN-09] | < 1 | did not form covalent adducts | bind and covalently adduct | fold higher IC50 on COLO205-MDR than COLO205 [4]: 4 fold |
| B1 |  |  |  | IC50 ([5]; RH30 cells with an excess of unconjugated huN901 antibody): > 3000 pM; IC50 ([5]; antigen positive RH30 cells): 15 pM |
